Experimental data taken from ChEMBL document CHEMBL1201862, “PubChem BioAssay data set” (2004).
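Test compounds were applied to cells in 96-well plates for 48 hours at 5 doses. GI50: concentration for 50% inhibition of growth.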 Active and inactive are the calls of the source. No stated cut-off is given here; in the data, active = GI50 up to about 1.1 µM and inactive = higher.

Key:
Assay in all cases: growth of human tumour cells (NCI), 48 h
U-251 = test system: U-251
NCI-H522 = test system: NCI-H522
HCC 2998 = test system: HCC 2998
SF-295 = test system: SF-295
NCI-H226 = test system: NCI-H226
UACC-257 = test system: UACC-257
HCT-15 = test system: HCT-15
M14 = test system: M14
A549 = test system: A549
OVCAR-3 = test system: OVCAR-3
DU-145 = test system: DU-145
SN12C = test system: SN12C
A498 = test system: A498
T47D = test system: T47D
SK-MEL-2 = test system: SK-MEL-2
MDA-MB-435 = test system: MDA-MB-435
SK-MEL-28 = test system: SK-MEL-28

SMILES | GI50 (U-251) | GI50 (NCI-H522) | GI50 (HCC 2998) | GI50 (SF-295) | GI50 (NCI-H226) | GI50 (UACC-257) | GI50 (HCT-15) [µM] | GI50 (M14) | GI50 (A549) | GI50 (OVCAR-3) | GI50 (DU-145) | GI50 (SN12C) | GI50 (A498) | GI50 (T47D) | GI50 (SK-MEL-2) | GI50 (MDA-MB-435) | GI50 (SK-MEL-28)
C#CC(=O)OCC#CCOC(=O)C#C | 17.5 µM (inactive) | 3.23 µM (inactive) | 19.6 µM (inactive) | > 100 µM (inactive) | 19 µM (inactive) | > 100 µM (inactive) | 18.7 | 23.4 µM (inactive) | 27.9 µM (inactive) | 17.9 µM (inactive) | 26.8 µM (inactive) | 28.5 µM (inactive) | > 100 µM (inactive) | 23.7 µM (inactive) | 20.2 µM (inactive) | 28.8 µM (inactive) | 
CC(=O)C1COC(O)C1C (stereo not given) | 23.4 µM (inactive) |  |  | 26.1 µM (inactive) | 21.4 µM (inactive) | 32.2 µM (inactive) | 18.5 | 23.9 µM (inactive) | 53.8 µM (inactive) | 19 µM (inactive) | 28.3 µM (inactive) | 20.7 µM (inactive) | 56.2 µM (inactive) | 35.2 µM (inactive) | 15.3 µM (inactive) | 16.1 µM (inactive) | 19.5 µM (inactive)
c1c[nH]c(CN2CCOCC2)n1 | > 100 µM (inactive) | > 100 µM (inactive) |  | > 100 µM (inactive) | > 100 µM (inactive) | > 100 µM (inactive) | > 100 | > 100 µM (inactive) | > 100 µM (inactive) | > 100 µM (inactive) | > 100 µM (inactive) | > 100 µM (inactive) | > 100 µM (inactive) | > 100 µM (inactive) | > 100 µM (inactive) | > 100 µM (inactive) | > 100 µM (inactive)
C[N+](C)(C)C1(C(=O)[O-])CC1 | > 100 µM (inactive) | > 100 µM (inactive) | > 100 µM (inactive) | > 100 µM (inactive) | > 100 µM (inactive) | > 100 µM (inactive) | > 100 | > 100 µM (inactive) | > 100 µM (inactive) | > 100 µM (inactive) | > 100 µM (inactive) | > 100 µM (inactive) | > 100 µM (inactive) | 72.1 µM (inactive) |  | > 100 µM (inactive) | > 100 µM (inactive)
O=C(O)CN1CCN2CCOCCOCCN(CC1)CCN(CC(=O)O)CC2 | > 100 µM (inactive) | > 100 µM (inactive) |  | > 100 µM (inactive) | > 100 µM (inactive) | > 100 µM (inactive) | > 100 | > 100 µM (inactive) | > 100 µM (inactive) | > 100 µM (inactive) | > 100 µM (inactive) | > 100 µM (inactive) | > 100 µM (inactive) | > 100 µM (inactive) | > 100 µM (inactive) | > 100 µM (inactive) | > 100 µM (inactive)
S=C=Nc1ccc(CSc2nc3ccccc3[nH]2)cc1 | 17.1 µM (inactive) | 4.25 µM (inactive) | 18.1 µM (inactive) | 17.3 µM (inactive) |  | 19.3 µM (inactive) | 15 |  | 17.1 µM (inactive) |  | 16.1 µM (inactive) | 17.5 µM (inactive) | 23 µM (inactive) | 15.2 µM (inactive) | 18.9 µM (inactive) | 17.5 µM (inactive) | 18.7 µM (inactive)
[O-][n+]1onc2c1/C(=N/O)CCC2 |  | > 100 µM (inactive) | > 100 µM (inactive) | > 100 µM (inactive) | > 100 µM (inactive) | > 100 µM (inactive) | > 100 | > 100 µM (inactive) | > 100 µM (inactive) | > 100 µM (inactive) | > 100 µM (inactive) | > 100 µM (inactive) | > 100 µM (inactive) | > 100 µM (inactive) | > 100 µM (inactive) | > 100 µM (inactive) | > 100 µM (inactive)
CCCCNC(=S)Nc1nc(C(=O)NNC(=S)Nc2ccccc2)cs1 | 21.1 µM (inactive) |  | > 100 µM (inactive) | > 100 µM (inactive) | > 100 µM (inactive) | > 100 µM (inactive) | > 100 | 82.8 µM (inactive) | > 100 µM (inactive) | > 100 µM (inactive) | > 100 µM (inactive) | > 100 µM (inactive) | 33.1 µM (inactive) | > 100 µM (inactive) | 44.9 µM (inactive) | 61 µM (inactive) | 
Cc1nnc(CC#N)n1NC(=O)CC#N | > 100 µM (inactive) | > 100 µM (inactive) | > 100 µM (inactive) | > 100 µM (inactive) |  | > 100 µM (inactive) | > 100 | > 100 µM (inactive) | > 100 µM (inactive) | > 100 µM (inactive) | > 100 µM (inactive) | > 100 µM (inactive) | > 100 µM (inactive) | > 100 µM (inactive) | > 100 µM (inactive) | > 100 µM (inactive) | > 100 µM (inactive)
